Assay results: ChEMBL document CHEMBL1131951, “Sialidase inhibitors related to zanamivir: synthesis and biological evaluation of 4H-pyran 6-ether and ketone” (Bioorg Med Chem Lett, 1999)

How the values were obtained:
Influenza A virus = test: Inhibitory activity against sialidase of influenza A; type: functional, organism-based
Influenza B virus = test: Inhibitory activity against sialidase of influenza B; type: functional, organism-based

Row | SMILES | IC50 (Influenza A virus) [nM] | IC50 (Influenza B virus) [nM]
1 | CCC(CC)O[C@@H]1OC(C(=O)O)=C[C@H](N)[C@H]1NC(C)=O | 770 | 42000
2 | CC(=O)N[C@H]1[C@H]([C@H](O)[C@H](O)CO)OC(C(=O)O)=C[C@@H]1NC(=N)N [ZANAMIVIR] | 5 | 4
3 | CCC(CC)C(=O)[C@@H]1OC(C(=O)O)=C[C@H](N)[C@H]1NC(C)=O | 2 | 470
4 | CCC(CC)C(O)[C@@H]1OC(C(=O)O)=C[C@H](N)[C@H]1NC(C)=O (some centres not stated) | 39 | 7400
5 | CCC(CC)O[C@@H]1C=C(C(=O)O)C[C@H](N)[C@H]1NC(C)=O [OSELTAMIVIR CARBOXYLATE] | 2 | 32
6 | CCN(CC)C(=O)[C@@H]1OC(C(=O)O)=C[C@H](N)[C@H]1NC(C)=O | 3 | 360
